Measurements: patent US11780845B2 (Relay Therapeutics, Inc., priority 2019, dated 2023)

What was measured:
[1] = system: SNU-16; assay: Cell SNU-16 assay; type: cell-based; settings: Homo sapiens, SNU-16, SNU-16 cells
[2] = molecular target: FGFR2 (Homo sapiens (Human), UniProt P21802); assay: Biochemical FGFR2 Caliper assay
Chain of FGFR2 (P21802 22-821): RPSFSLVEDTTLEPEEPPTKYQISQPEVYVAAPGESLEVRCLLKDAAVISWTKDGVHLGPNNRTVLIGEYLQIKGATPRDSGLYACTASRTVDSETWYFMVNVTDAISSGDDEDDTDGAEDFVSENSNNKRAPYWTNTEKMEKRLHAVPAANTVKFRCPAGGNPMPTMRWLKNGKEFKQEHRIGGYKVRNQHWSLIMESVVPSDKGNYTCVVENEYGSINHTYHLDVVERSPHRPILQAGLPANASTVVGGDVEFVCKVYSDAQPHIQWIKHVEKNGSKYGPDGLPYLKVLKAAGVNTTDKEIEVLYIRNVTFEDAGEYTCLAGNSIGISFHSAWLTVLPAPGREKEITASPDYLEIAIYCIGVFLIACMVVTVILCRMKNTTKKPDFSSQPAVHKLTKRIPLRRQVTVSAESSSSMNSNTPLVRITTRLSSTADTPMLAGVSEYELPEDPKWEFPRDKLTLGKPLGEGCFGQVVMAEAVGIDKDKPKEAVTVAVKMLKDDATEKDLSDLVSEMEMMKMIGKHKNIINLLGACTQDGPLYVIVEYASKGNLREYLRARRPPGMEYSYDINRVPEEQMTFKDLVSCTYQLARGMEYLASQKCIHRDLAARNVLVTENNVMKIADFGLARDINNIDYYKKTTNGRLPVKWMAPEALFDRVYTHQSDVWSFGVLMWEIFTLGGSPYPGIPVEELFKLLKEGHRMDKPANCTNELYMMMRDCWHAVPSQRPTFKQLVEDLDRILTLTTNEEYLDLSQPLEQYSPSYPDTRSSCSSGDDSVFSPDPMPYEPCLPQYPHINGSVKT

C=C1CCc2ccc(-c3c(-c4ccc(Oc5nccc(C)n5)cc4)c4c(N)ncnc4n3C)cc2C1=O [Example 1242]
IC50 [1]: 1 to 100 µM | IC50 [2]: 0.1 to 0.25 µM

C#Cc1ccc(-c2c(-c3ccc(Oc4nccc(C)n4)c(F)c3)c3c(N)ncnc3n2C)c(CC)n1 [Example 1243]
IC50 [1]: ≤ 0.1 µM | IC50 [2]: < 0.1 µM

C#Cc1cc(C)c(-c2c(-c3ccc(Oc4nccc(C)n4)c(F)c3)c3c(N)ncnc3n2CCO)cn1 [Example 1245]
IC50 [1]: ≤ 0.1 µM | IC50 [2]: < 0.1 µM

C#Cc1cc(C)c(-c2c(-c3ccc(Oc4ccn(C)n4)c(F)c3)c3c(N)ncnc3n2C)cn1 [Example 1246]
IC50 [1]: ≤ 0.1 µM | IC50 [2]: < 0.1 µM

C#Cc1cc(C)c(-c2c(C3=CC[C@H](C(=O)N4CCC[C@H]4C)CC3)c3c(N)ncnc3n2C)cn1 [Example 1249]
IC50 [1]: 0.1 to 0.25 µM | IC50 [2]: 0.25 to 1 µM

C#Cc1cc(Cl)c(-c2c(-c3ccc(Oc4nccc(C)n4)c(F)c3)c3c(N)ncnc3n2C)cn1 [Example 1250]
IC50 [1]: ≤ 0.1 µM | IC50 [2]: < 0.1 µM

C#Cc1cc(C)c(-c2c(C3=CC[C@H](C(=O)N4CCC[C@H]4C#N)CC3)c3c(N)ncnc3n2C)cn1 [Example 1251]
IC50 [1]: ≤ 0.1 µM | IC50 [2]: < 0.1 µM

C#Cc1cc(C)c(-c2c(C3=CC[C@@H](C(=O)N4CCC[C@H]4C#N)CC3)c3c(N)ncnc3n2C)cn1 [Example 1252]
IC50 [1]: ≤ 0.1 µM | IC50 [2]: < 0.1 µM

C#Cc1cc(C(F)F)c(-c2c(-c3ccc(Oc4nccc(C)n4)c(F)c3)c3c(N)ncnc3n2C)cn1 [Example 1253]
IC50 [1]: ≤ 0.1 µM | IC50 [2]: < 0.1 µM

C#Cc1ncc(-c2c(-c3ccc(Oc4nccc(C)n4)c(F)c3)c3c(C)ncnc3n2C)c(C)c1F [Example 1255]
IC50 [1]: ≤ 0.1 µM | IC50 [2]: < 0.1 µM

C#Cc1cc(C)c(-c2c(C3=CC[C@H](C(=O)N4CCC[C@@H]4C)CC3)c3c(N)ncnc3n2C)cn1 [Example 1257]
IC50 [1]: 0.25 to 1 µM | IC50 [2]: 0.25 to 1 µM

C#Cc1ncc(-c2c(-c3ccc(C(=O)NCC(F)(F)F)c(OC)c3)c3c(N)ncnc3n2C)c(C)c1F [Example 1260]
IC50 [1]: ≤ 0.1 µM | IC50 [2]: < 0.1 µM

C#Cc1ncc(-c2c(-c3ccc(C(=O)NCC(C)C)c(F)c3)c3c(N)ncnc3n2C)c(C)c1F [Example 1261]
IC50 [1]: ≤ 0.1 µM | IC50 [2]: < 0.1 µM

C#Cc1cc(C)c(-c2c(-c3ccc(Oc4nccc(C)n4)c(C#N)c3)c3c(N)ncnc3n2C)cn1 [Example 1262]
IC50 [1]: ≤ 0.1 µM | IC50 [2]: < 0.1 µM

C#Cc1cc(C)c(-c2c(-c3ccc(Oc4nccc(C)n4)c(Cl)c3)c3c(N)ncnc3n2C)cn1 [Example 1263]
IC50 [1]: ≤ 0.1 µM | IC50 [2]: < 0.1 µM

C#Cc1ncc(-c2c(-c3ccc(Oc4nccc(C)n4)c(Cl)c3)c3c(N)ncnc3n2C)c(C)c1F [Example 1264]
IC50 [1]: ≤ 0.1 µM | IC50 [2]: < 0.1 µM

COC(=O)/C=C/CNc1ccc(-c2c(-c3ccc(Oc4nccc(C)n4)c(F)c3)c3c(N)ncnc3n2C)cc1 [Example 1265]
IC50 [1]: 0.1 to 0.25 µM | IC50 [2]: < 0.1 µM

Cc1ccnc(Oc2ccc(-c3c(-c4ccc(NCC#N)cc4)n(C)c4ncnc(N)c34)cc2F)n1 [Example 1266]
IC50 [1]: 0.25 to 1 µM | IC50 [2]: 1 to 100 µM

C=C(C)C(=O)Nc1ccc(-c2c(-c3ccc4c(c3)NCCN4C)c3c(N)ncnc3n2C)cc1 [Example 1267]
IC50 [1]: 1 to 100 µM | IC50 [2]: 1 to 100 µM

C=C(C)C(=O)Nc1ccc(-c2c(C3=COCCC3)c3c(N)ncnc3n2C)cc1 [Example 1268]
IC50 [1]: 1 to 100 µM | IC50 [2]: 1 to 100 µM

C=C(C)C(=O)Nc1ccc(-c2c(C3=CCCCO3)c3c(N)ncnc3n2C)cc1 [Example 1269]
IC50 [1]: 1 to 100 µM | IC50 [2]: 1 to 100 µM

C=C(C)C(=O)Nc1ccc(-c2c(-c3cc4cccnc4s3)c3c(N)ncnc3n2C)cc1 [Example 1270]
IC50 [1]: 0.25 to 1 µM | IC50 [2]: 0.25 to 1 µM

C=C(C)C(=O)Nc1ccc(-c2c(-c3ccc(-c4cccnc4)s3)c3c(N)ncnc3n2C)cc1 [Example 1271]
IC50 [1]: 1 to 100 µM | IC50 [2]: 1 to 100 µM

C=C(C)C(=O)Nc1ccc(-c2c(-c3ccc4ccncc4c3)c3c(N)ncnc3n2C)cc1 [Example 1272]
IC50 [1]: 1 to 100 µM | IC50 [2]: 1 to 100 µM

C=C(C)C(=O)Nc1ccc(-c2c(-c3coc4ccccc34)c3c(N)ncnc3n2C)cc1 [Example 1273]
IC50 [1]: 1 to 100 µM | IC50 [2]: 1 to 100 µM

C=C(C)C(=O)Nc1ccc(-c2c(-c3ccc4nc(C)oc4c3)c3c(N)ncnc3n2C)cc1 [Example 1274]
IC50 [1]: 1 to 100 µM | IC50 [2]: 1 to 100 µM

C=C(C)C(=O)Nc1ccc(-c2c(-c3cnn(C4CCCC4)c3)c3c(N)ncnc3n2C)cc1 [Example 1275]
IC50 [1]: 0.25 to 1 µM | IC50 [2]: 0.25 to 1 µM

C=C(C)C(=O)Nc1ccc(-c2c(-c3cnn(-c4ccccc4)c3C)c3c(N)ncnc3n2C)cc1 [Example 1276]
IC50 [1]: 1 to 100 µM | IC50 [2]: 1 to 100 µM

C=C(C)C(=O)Nc1ccc(-c2c(-c3ccc4cccnc4c3)c3c(N)ncnc3n2C)cc1 [Example 1277]
IC50 [1]: 1 to 100 µM | IC50 [2]: 0.25 to 1 µM

C=C(C)C(=O)Nc1ccc(-c2c(-c3ccc(-c4ccccn4)s3)c3c(N)ncnc3n2C)cc1 [Example 1278]
IC50 [1]: 0.25 to 1 µM | IC50 [2]: 0.25 to 1 µM

C=C(C)C(=O)Nc1ccc(-c2c(-c3ccc4nc(C)sc4c3)c3c(N)ncnc3n2C)cc1 [Example 1279]
IC50 [1]: 0.25 to 1 µM | IC50 [2]: 0.25 to 1 µM

C=C(C)C(=O)Nc1ccc(-c2c(-c3ccc4oc(C)nc4c3)c3c(N)ncnc3n2C)cc1 [Example 1280]
IC50 [1]: 0.25 to 1 µM | IC50 [2]: 0.25 to 1 µM

C=C(C)C(=O)Nc1ccc(-c2c(-c3cnn(-c4ccccc4)c3)c3c(N)ncnc3n2C)cc1 [Example 1281]
IC50 [1]: 0.25 to 1 µM | IC50 [2]: 1 to 100 µM

C=C(C)C(=O)Nc1ccc(-c2c(-c3ccc4ncccc4c3)c3c(N)ncnc3n2C)cc1 [Example 1282]
IC50 [1]: 1 to 100 µM | IC50 [2]: 1 to 100 µM

C=C(C)C(=O)Nc1ccc(-c2c(-c3ccc4c(c3)NC(=O)C4(C)C)c3c(N)ncnc3n2C)cc1 [Example 1283]
IC50 [1]: 1 to 100 µM | IC50 [2]: 1 to 100 µM

C=C(C)C(=O)Nc1ccc(-c2c(-c3cnc4ccccc4c3)c3c(N)ncnc3n2C)cc1 [Example 1284]
IC50 [1]: 1 to 100 µM | IC50 [2]: 1 to 100 µM

C=C(C)C(=O)Nc1ccc(-c2c(-c3cnn(-c4ccc(F)cc4)c3)c3c(N)ncnc3n2C)cc1 [Example 1285]
IC50 [1]: 1 to 100 µM | IC50 [2]: 0.25 to 1 µM

C=C(C)C(=O)Nc1ccc(-c2c(-c3ccc4cnccc4c3)c3c(N)ncnc3n2C)cc1 [Example 1286]
IC50 [1]: 0.25 to 1 µM | IC50 [2]: 0.25 to 1 µM

C=C(C)C(=O)Nc1ccc(-c2c(C3=CCC(C#N)CC3)c3c(N)ncnc3n2C)cc1 (stereo not shown) [Example 1287]
IC50 [1]: 1 to 100 µM | IC50 [2]: 1 to 100 µM

C=C(C)C(=O)Nc1ccc(-c2c(-c3ccc4occc4c3)c3c(N)ncnc3n2C)cc1 [Example 1288]
IC50 [1]: 1 to 100 µM | IC50 [2]: 1 to 100 µM

C=C(C)C(=O)Nc1ccc(-c2c(-c3ccc4c(c3)COCC4)c3c(N)ncnc3n2C)cc1 [Example 1289]
IC50 [1]: 1 to 100 µM | IC50 [2]: 1 to 100 µM

C=C(C)C(=O)Nc1ccc(-c2c(-c3ccc4[nH]nc(C)c4c3)c3c(N)ncnc3n2C)cc1 [Example 1290]
IC50 [1]: 1 to 100 µM | IC50 [2]: 1 to 100 µM

C=C(C)C(=O)Nc1ccc(-c2c(-c3cnn(-c4cccc(C(F)(F)F)c4)c3)c3c(N)ncnc3n2C)cc1 [Example 1291]
IC50 [1]: 1 to 100 µM | IC50 [2]: 1 to 100 µM

C=C(C)C(=O)Nc1ccc(-c2c(-c3ccc4c(c3)CCOC4)c3c(N)ncnc3n2C)cc1 [Example 1292]
IC50 [1]: 1 to 100 µM | IC50 [2]: 1 to 100 µM

C=C(C)C(=O)Nc1ccc(-c2c(-c3cnc(-c4ccccc4)s3)c3c(N)ncnc3n2C)cc1 [Example 1293]
IC50 [1]: 0.25 to 1 µM | IC50 [2]: 0.1 to 0.25 µM

C=C(C)C(=O)Nc1ccc(-c2c(-c3ccc4nc[nH]c4c3)c3c(N)ncnc3n2C)cc1 [Example 1294]
IC50 [1]: 1 to 100 µM | IC50 [2]: 0.25 to 1 µM

C=C(C)C(=O)Nc1ccc(-c2c(-c3ccc(N)nc3)c3c(N)ncnc3n2C)cc1 [Example 1295]
IC50 [1]: 1 to 100 µM | IC50 [2]: 1 to 100 µM

C=C(C)C(=O)Nc1ccc(-c2c(-c3ccc4[nH]ccc4c3)c3c(N)ncnc3n2C)cc1 [Example 1296]
IC50 [1]: 0.25 to 1 µM | IC50 [2]: 0.1 to 0.25 µM

C=C(C)C(=O)Nc1ccc(-c2c(-c3ccc4cc[nH]c4c3)c3c(N)ncnc3n2C)cc1 [Example 1297]
IC50 [1]: 0.25 to 1 µM | IC50 [2]: 0.25 to 1 µM

C=C(C)C(=O)Nc1ccc(-c2c(-c3cccc(O)c3)c3c(N)ncnc3n2C)cc1 [Example 1298]
IC50 [1]: 1 to 100 µM | IC50 [2]: 0.25 to 1 µM

C=C(C)C(=O)Nc1ccc(-c2c(-c3cccc(N)c3)c3c(N)ncnc3n2C)cc1 [Example 1299]
IC50 [1]: 1 to 100 µM | IC50 [2]: 1 to 100 µM

C=C(C)C(=O)Nc1ccc(-c2c(-c3ccc(-c4cc(=O)[nH][nH]4)cc3)c3c(N)ncnc3n2C)cc1 [Example 1300]
IC50 [1]: 1 to 100 µM | IC50 [2]: 1 to 100 µM

C=C(C)C(=O)Nc1ccc(-c2c(-c3ccc4cn[nH]c4c3)c3c(N)ncnc3n2C)cc1 [Example 1301]
IC50 [1]: 1 to 100 µM | IC50 [2]: 1 to 100 µM

C=C(C)C(=O)Nc1ccc(-c2c(-c3ccc4nn[nH]c4c3)c3c(N)ncnc3n2C)cc1 [Example 1302]
IC50 [1]: 1 to 100 µM | IC50 [2]: 1 to 100 µM

C=C(C)C(=O)Nc1ccc(-c2c(-c3ccc(NC(=O)OCC)nc3)c3c(N)ncnc3n2C)cc1 [Example 1303]
IC50 [1]: 1 to 100 µM | IC50 [2]: 1 to 100 µM

C#Cc1ccc(-c2c(C3=CC[C@H](C(=O)N4CCCC45COC5)CC3)c3c(N)ncnc3n2C)c(C)n1 [Example 1304]
IC50 [1]: 0.25 to 1 µM | IC50 [2]: 0.25 to 1 µM

C#Cc1ncc(-c2c(-c3ccc(C(=O)N(C)CC(C)C)cc3)c3c(N)ncnc3n2C)c(C)c1F [Example 1305]
IC50 [1]: ≤ 0.1 µM | IC50 [2]: < 0.1 µM

C#Cc1ncc(-c2c(-c3ccc(C(=O)NCC(C)C)cc3)c3c(N)ncnc3n2C)c(C)c1F [Example 1306]
IC50 [1]: ≤ 0.1 µM | IC50 [2]: < 0.1 µM

CNC(=O)/C(C#N)=C/c1ccc(-c2c(-c3ccc(Oc4nccc(C)n4)c(F)c3)c3c(N)ncnc3n2C)c(C)c1 [Example 1309]
IC50 [1]: 0.25 to 1 µM | IC50 [2]: < 0.1 µM

C#Cc1ncc(-c2c(-c3ccc(Oc4nccc(C)n4)cc3F)c3c(N)ncnc3n2C)c(C)c1F [Example 1310]
IC50 [1]: ≤ 0.1 µM | IC50 [2]: < 0.1 µM

C=C1CCc2cc(-c3c(-c4ccc(Oc5nccc(C)n5)cc4)c4c(N)ncnc4n3C)ccc2C1=O [Example 1311]
IC50 [1]: 0.25 to 1 µM | IC50 [2]: < 0.1 µM

CC#Cc1cnc(-c2c(-c3ccc(Oc4nccc(C)n4)c(F)c3)c3c(N)ncnc3n2C)c(C)n1 [Example 1312]
IC50 [1]: 0.1 to 0.25 µM | IC50 [2]: 0.25 to 1 µM
